Reference: ChEMBL document CHEMBL4680144, “N-thiadiazole-4-hydroxy-2-quinolone-3-carboxamides bearing heteroaromatic rings as novel antibacterial agents: Design, synthesis, biological evaluation and target identification” (Eur J Med Chem, 2020)
≈ marks a conversion by molar mass, not a printed value.

Experiments:
[1] = Inhibition of Staphylococcus aureus Gyrase B using linear pBR322 DNA as substrate incubated for 30 mins in presence of ATP by ADP-Glo assay
[2] = test system: Staphylococcus aureus; test: Antibacterial activity against wild type methicillin-sensitive Staphylococcus aureus ATCC 29213 assessed as inhibition of bacterial growth incubated for 18 to 24 hrs by broth microdilution method; format: functional; details: time 18-24 hrs
[3] = test system: Enterococcus faecalis; test: Antibacterial activity against Enterococcus faecalis clinical isolate 15-2 assessed as inhibition of bacterial growth incubated for 18 to 24 hrs by broth microdilution method; format: functional; details: time 18-24 hrs
[4] = test system: Staphylococcus aureus; test: Antibacterial activity against methicillin-resistant Staphylococcus aureus clinical isolate 15-6 assessed as inhibition of bacterial growth incubated for 18 to 24 hrs by broth microdilution method; format: functional; details: time 18-24 hrs
[5] = test system: Enterococcus faecalis; test: Antibacterial activity against vancomycin-resistant Enterococcus faecalis ATCC 51299 assessed as inhibition of bacterial growth incubated for 18 to 24 hrs by broth microdilution method; format: functional; details: time 18-24 hrs
[6] = test system: Enterococcus faecalis; test: Antibacterial activity against vancomycin-resistant Enterococcus faecalis ATCC 700802 assessed as inhibition of bacterial growth incubated for 18 to 24 hrs by broth microdilution method; format: functional; details: time 18-24 hrs
[7] = test system: Enterococcus faecalis; test: Antibacterial activity against vancomycin-resistant Enterococcus faecalis ATCC 51575 assessed as inhibition of bacterial growth incubated for 18 to 24 hrs by broth microdilution method; format: functional; details: time 18-24 hrs
[8] = test system: Staphylococcus epidermidis; test: Antibacterial activity against methicillin-sensitive Staphylococcus epidermidis clinical isolate 15-3 assessed as inhibition of bacterial growth incubated for 18 to 24 hrs by broth microdilution method; format: functional; details: time 18-24 hrs
[9] = test system: Staphylococcus aureus; test: Antibacterial activity against methicillin-resistant Staphylococcus aureus clinical isolate 15-2 assessed as inhibition of bacterial growth incubated for 18 to 24 hrs by broth microdilution method; format: functional; details: time 18-24 hrs
[10] = test system: Staphylococcus aureus; test: Antibacterial activity against methicillin resistant and vancomycin-intermediate sensitive Staphylococcus aureus ATCC 700788 assessed as inhibition of bacterial growth incubated for 18 to 24 hrs by broth microdilution method; format: functional; details: time 18-24 hrs
[11] = test system: Staphylococcus epidermidis; test: Antibacterial activity against methicillin-resistant Staphylococcus epidermidis clinical isolate 15-1 assessed as inhibition of bacterial growth incubated for 18 to 24 hrs by broth microdilution method; format: functional; details: time 18-24 hrs
[12] = test system: Staphylococcus epidermidis; test: Antibacterial activity against methicillin-resistant Staphylococcus epidermidis clinical isolate 15-3 assessed as inhibition of bacterial growth incubated for 18 to 24 hrs by broth microdilution method; format: functional; details: time 18-24 hrs
[13] = test system: Enterococcus faecium; test: Antibacterial activity against Enterococcus faecium clinical isolate 15-2 assessed as inhibition of bacterial growth incubated for 18 to 24 hrs by broth microdilution method; format: functional; details: time 18-24 hrs
[14] = test system: Staphylococcus aureus; test: Antibacterial activity against methicillin-resistant Staphylococcus aureus clinical isolate 15-8 assessed as inhibition of bacterial growth incubated for 18 to 24 hrs by broth microdilution method; format: functional; details: time 18-24 hrs
[15] = test system: Enterococcus faecium; test: Antibacterial activity against Enterococcus faecium clinical isolate 15-1 assessed as inhibition of bacterial growth incubated for 18 to 24 hrs by broth microdilution method; format: functional; details: time 18-24 hrs
[16] = test system: Staphylococcus epidermidis; test: Antibacterial activity against methicillin-resistant Staphylococcus epidermidis clinical isolate 15-2 assessed as inhibition of bacterial growth incubated for 18 to 24 hrs by broth microdilution method; format: functional; details: time 18-24 hrs
[17] = test system: Staphylococcus aureus; test: Antibacterial activity against methicillin-resistant Staphylococcus aureus clinical isolate 15-1 assessed as inhibition of bacterial growth incubated for 18 to 24 hrs by broth microdilution method; format: functional; details: time 18-24 hrs
[18] = test system: Staphylococcus epidermidis; test: Antibacterial activity against methicillin-sensitive Staphylococcus epidermidis clinical isolate 15-4 assessed as inhibition of bacterial growth incubated for 18 to 24 hrs by broth microdilution method; format: functional; details: time 18-24 hrs
[19] = test system: Enterococcus faecalis; test: Antibacterial activity against Enterococcus faecalis clinical isolate 15-1 assessed as inhibition of bacterial growth incubated for 18 to 24 hrs by broth microdilution method; format: functional; details: time 18-24 hrs
[20] = test system: Staphylococcus aureus; test: Antibacterial activity against methicillin-resistant Staphylococcus aureus clinical isolate 15-3 assessed as inhibition of bacterial growth incubated for 18 to 24 hrs by broth microdilution method; format: functional; details: time 18-24 hrs
[21] = test system: Staphylococcus aureus; test: Antibacterial activity against methicillin-resistant Staphylococcus aureus clinical isolate 15-7 assessed as inhibition of bacterial growth incubated for 18 to 24 hrs by broth microdilution method; format: functional; details: time 18-24 hrs
[22] = test system: Staphylococcus aureus; test: Antibacterial activity against methicillin-resistant Staphylococcus aureus clinical isolate 15-9 assessed as inhibition of bacterial growth incubated for 18 to 24 hrs by broth microdilution method; format: functional; details: time 18-24 hrs
[23] = test system: Staphylococcus aureus; test: Antibacterial activity against methicillin resistant and vancomycin-intermediate sensitive Staphylococcus aureus ATCC 700699 assessed as inhibition of bacterial growth incubated for 18 to 24 hrs by broth microdilution method; format: functional; details: time 18-24 hrs

Question: Which IC50 [1] does the source give for `CCn1c(=O)c(C(=O)Nc2nnc(-c3cccc(F)c3)s2)c(O)c2ccccc21` here?
Answer: 1810 nM

Question: What about the MIC [2] of the same compound?
Answer: 6.25 µg/mL (≈ 15.2 µM)

Question: Which IC50 [1] does the source give for `CCn1c(=O)c(C(=O)Nc2nnc(-c3ccc(OC)cc3)s2)c(O)c2ccccc21` here?
Answer: 1140 nM

Question: What about the MIC [2] of the same compound?
Answer: 3.12 µg/mL (≈ 7.39 µM)

Question: Which IC50 [1] does the source give for `CCOc1cccc(-c2nnc(NC(=O)c3c(O)c4ccccc4n(CC)c3=O)s2)c1` here?
Answer: 1690 nM

Question: What about the MIC [2] of the same compound?
Answer: 3.12 µg/mL (≈ 7.15 µM)

Question: What does the source list for `CCn1c(=O)c(C(=O)Nc2nnc(-c3ccc(N(C)C)cc3)s2)c(O)c2ccccc21`?
Answer: IC50 [1]: 2660 nM; MIC [2]: 3.12 µg/mL (≈ 7.16 µM)

Question: For `CCn1c(=O)c(C(=O)Nc2nnc(-c3ccc([N+](=O)[O-])cc3)s2)c(O)c2ccccc21`, which IC50 [1] is on record?
Answer: 1610 nM

Question: What about the MIC [2] of the same compound?
Answer: 50 µg/mL (≈ 114 µM)

Question: Which results are given for `CCn1c(=O)c(C(=O)Nc2nnc(C3CCCC3)s2)c(O)c2ccccc21`?
Answer: IC50 [1]: 550 nM; MIC [2]: 6.25 µg/mL (≈ 16.3 µM)

Question: Which IC50 [1] does the source give for `CCn1c(=O)c(C(=O)Nc2nnc(-c3ccccc3F)s2)c(O)c2ccccc21` here?
Answer: 990 nM

Question: What about the MIC [2] of the same compound?
Answer: 12.5 µg/mL (≈ 30.5 µM)

Question: With `CCn1c(=O)c(C(=O)Nc2nnc(-c3ccncc3)s2)c(O)c2ccccc21` as the compound, how does the IC50 [1] read?
Answer: 240 nM

Question: What about the MIC [2] of the same compound?
Answer: 1.56 µg/mL (≈ 3.97 µM)

Question: Which MIC [3] does the source give for `CCCc1nnc(NC(=O)c2c(O)c3ccccc3n(CC)c2=O)s1` here?
Answer: 4 µg/mL (≈ 11.2 µM)

Question: And the IC50 [1]?
Answer: 270 nM

Question: And the MIC [4]?
Answer: 2 µg/mL (≈ 5.58 µM)

Question: And the MIC [5]?
Answer: 8 µg/mL (≈ 22.3 µM)

Question: What about the MIC [6] of the same compound?
Answer: 8 µg/mL (≈ 22.3 µM)

Question: And the MIC [7]?
Answer: 8 µg/mL (≈ 22.3 µM)

Question: And the MIC [8]?
Answer: 2 µg/mL (≈ 5.58 µM)

Question: And the MIC [9]?
Answer: 2 µg/mL (≈ 5.58 µM)

Question: What about the MIC [10] of the same compound?
Answer: 4 µg/mL (≈ 11.2 µM)

Question: What about the MIC [11] of the same compound?
Answer: 2 µg/mL (≈ 5.58 µM)

Question: What about the MIC [12] of the same compound?
Answer: 2 µg/mL (≈ 5.58 µM)

Question: What about the MIC [13] of the same compound?
Answer: 4 µg/mL (≈ 11.2 µM)

Question: What about the MIC [14] of the same compound?
Answer: 2 µg/mL (≈ 5.58 µM)

Question: And the MIC [15]?
Answer: 2 µg/mL (≈ 5.58 µM)

Question: And the MIC [16]?
Answer: 4 µg/mL (≈ 11.2 µM)

Question: And the MIC [17]?
Answer: 2 µg/mL (≈ 5.58 µM)

Question: And the MIC [18]?
Answer: 2 µg/mL (≈ 5.58 µM)

Question: What about the MIC [19] of the same compound?
Answer: 4 µg/mL (≈ 11.2 µM)

Question: And the MIC [2]?
Answer: 0.39 µg/mL (≈ 1.09 µM)

Question: What about the MIC [20] of the same compound?
Answer: 2 µg/mL (≈ 5.58 µM)

Question: What about the MIC [21] of the same compound?
Answer: 4 µg/mL (≈ 11.2 µM)

Question: And the MIC [22]?
Answer: 4 µg/mL (≈ 11.2 µM)

Question: And the MIC [23]?
Answer: 4 µg/mL (≈ 11.2 µM)

Question: With `CCn1c(=O)c(C(=O)Nc2nnc(-c3ccc(OC(F)F)cc3)s2)c(O)c2ccccc21` as the compound, how does the IC50 [1] read?
Answer: 1420 nM

Question: What about the MIC [2] of the same compound?
Answer: 12.5 µg/mL (≈ 27.3 µM)

Question: With `CCn1c(=O)c(C(=O)Nc2nnc(-c3ccc(Br)cc3)s2)c(O)c2ccccc21` as the compound, how does the IC50 [1] read?
Answer: 2190 nM

Question: And the MIC [2]?
Answer: 12.5 µg/mL (≈ 26.5 µM)

Question: Which IC50 [1] does the source give for `CCn1c(=O)c(C(=O)Nc2nnc(-c3ccccc3OC)s2)c(O)c2ccccc21` here?
Answer: 760 nM

Question: And the MIC [2]?
Answer: 3.12 µg/mL (≈ 7.39 µM)

Question: With `CCCCc1nnc(NC(=O)c2c(O)c3ccccc3n(CC)c2=O)s1` as the compound, how does the MIC [3] read?
Answer: 2 µg/mL (≈ 5.37 µM)

Question: And the IC50 [1]?
Answer: 990 nM

Question: What about the MIC [4] of the same compound?
Answer: 2 µg/mL (≈ 5.37 µM)

Question: And the MIC [5]?
Answer: 8 µg/mL (≈ 21.5 µM)

Question: What about the MIC [6] of the same compound?
Answer: 8 µg/mL (≈ 21.5 µM)

Question: What about the MIC [7] of the same compound?
Answer: 8 µg/mL (≈ 21.5 µM)

Question: And the MIC [8]?
Answer: 2 µg/mL (≈ 5.37 µM)

Question: And the MIC [9]?
Answer: 2 µg/mL (≈ 5.37 µM)

Question: And the MIC [10]?
Answer: 4 µg/mL (≈ 10.7 µM)

Question: And the MIC [11]?
Answer: 2 µg/mL (≈ 5.37 µM)

Question: What about the MIC [12] of the same compound?
Answer: 2 µg/mL (≈ 5.37 µM)

Question: And the MIC [13]?
Answer: 2 µg/mL (≈ 5.37 µM)

Question: What about the MIC [14] of the same compound?
Answer: 2 µg/mL (≈ 5.37 µM)

Question: And the MIC [15]?
Answer: 2 µg/mL (≈ 5.37 µM)

Question: What about the MIC [16] of the same compound?
Answer: 2 µg/mL (≈ 5.37 µM)

Question: What about the MIC [17] of the same compound?
Answer: 2 µg/mL (≈ 5.37 µM)

Question: What about the MIC [18] of the same compound?
Answer: 2 µg/mL (≈ 5.37 µM)

Question: What about the MIC [19] of the same compound?
Answer: 2 µg/mL (≈ 5.37 µM)

Question: What about the MIC [2] of the same compound?
Answer: 0.1 µg/mL (≈ 0.268 µM)

Question: And the MIC [20]?
Answer: 2 µg/mL (≈ 5.37 µM)

Question: And the MIC [21]?
Answer: 4 µg/mL (≈ 10.7 µM)

Question: What about the MIC [22] of the same compound?
Answer: 2 µg/mL (≈ 5.37 µM)

Question: What about the MIC [23] of the same compound?
Answer: 4 µg/mL (≈ 10.7 µM)

Question: With `CCn1c(=O)c(C(=O)Nc2nnc(C3CC3)s2)c(O)c2ccccc21` as the compound, how does the IC50 [1] read?
Answer: 580 nM

Question: What about the MIC [2] of the same compound?
Answer: 3.12 µg/mL (≈ 8.75 µM)

Question: For `CCn1c(=O)c(C(=O)Nc2nnc(-c3ccc(C)cc3)s2)c(O)c2ccccc21`, which IC50 [1] is on record?
Answer: 640 nM

Question: And the MIC [2]?
Answer: 6.25 µg/mL (≈ 15.4 µM)

Question: Which results are given for `CCn1c(=O)c(C(=O)Nc2nnc(-c3ccccc3C)s2)c(O)c2ccccc21`?
Answer: IC50 [1]: 3180 nM; MIC [2]: 50 µg/mL (≈ 123 µM)

Question: With `CCOc1ccccc1-c1nnc(NC(=O)c2c(O)c3ccccc3n(CC)c2=O)s1` as the compound, how does the IC50 [1] read?
Answer: 2350 nM

Question: And the MIC [2]?
Answer: 12.5 µg/mL (≈ 28.6 µM)
